Reference: US7427663B2, “Cardio myopeptidin, the production and the use thereof” (Dalian Zhen-Ao Pharmaceutical Co., Ltd., priority 2003, dated 2008)

How the values were obtained:
myocardial cells = experiment: Influence of pH and time on activity of cardio myopeptidin (MTT method); type: cell-based; settings: Adriamycin damage group, without cardio myopeptidin; normal control 0.691
[1] = system: succinic dehydrogenase of primarily cultured myocardial cells; experiment: Influence of each peak of cardio myopeptidin on enzyme activity of myocardial cells (MTT method); type: cell-based; settings: Adriamycin damage group; normal control 0.344
Excerpt: Polypeptide content in cardio myopeptidin is 75-90[…], free amino acids content is 6-15[…], and there is a little nucleic acid and microelement.

[2] = system: cardiac muscle of ischemia-reperfusion in rats; experiment: Damage of myocardial ultrastructure caused by ischemia-reperfusion, electron microscope semi-quantitative assay; type: in vivo; settings: rat, 2.0 mg/Kg i.v.
Protocol: (§1) By reference to literature methods, sublingually administer cardio myopeptidin or the reference drug through intravenous injection after rat's coronary artery LAD is ligated for 5 minutes; loosen the ligature after 10 minutes of myocardial ischemia, and reperfusion for 30 min, and simultaneously record II-lead ECG. Blood is taken from the abdominal aorta after the completion of reperfusion, and the heart is perfused and fixed with 6% glutaraldehyde and 0.1 M sodium cacodylate buffer for 2 hours after it is perfused and cleaned with physiological saline water through the aorta. Then the ischemic cardiac muscle from the left frontal wall is picked and cut into 1 mm^3 slices. The slices are immersed in 4% glutaraldehyde and 0.1 M sodium cacodylate buffer to be fixed for the preparation of electron microscope specimens. Slice the specimen of each cardiac muscle after fixation with osmic acid, serial dehydration with acetone, embedment and polymerization with epoxy resin 618, and for each cardiac muscle, cut 4 embedded pieces. Randomly take 20 photos for each group of cardiac muscle of animals with the negative magnification equal to 12000. Observe the change in the ultrastructure, and classify and determine the value according to categories of pathologic changes and severity of damage of mitochondrion, myocardial fiber and other components. […]

[3] = system: myocardial ischemia in cats; experiment: Epicardium electrocardiogram of cats with persistent myocardial ischemia, therapeutic administration; type: in vivo; settings: cat, 2.0 mg/Kg i.v.
[4] = system: myocardial ischemia-reperfusion in rats; experiment: Plasma FFA content of rats with ischemia-reperfusion; type: in vivo; settings: rat I-R, 2.0 mg/kg
Protocol: as §1

[5] = system: myocardial oxygen metabolism in dogs; experiment: Myocardial oxygen consumption and oxygen uptake in anesthetized dogs; type: in vivo; settings: dog, i.v. 2 mg/kg
Excerpt: Anesthetize dogs with sodium pentobarbital. Conduct endotracheal intubation and artificial respiration, and use an RM-86 polygraph to monitor electrocardiogram and aortic pressure. Open the thoracic cavity from the left side to expose the heart. Intubate a cannula from the apex of the heart to the left ventricle, and record the pressure of the left ventricle and pressure change rate (±dp/dt max). In order to know the change in circulation of the coronary artery and myocardial oxygen metabolism, separate the left circumflex branch of the coronary artery of dogs, use an electromagnetic flowmeter to measure the flow of coronary artery, and calculate the resistance against the coronary artery. Intubate a cannula from the external jugular vein of dogs to the […]. Simultaneously draw the arterial blood and the coronary sinus blood. Use a blood gas analyzer (Model ABL-3, Denmark) to determine blood oxygen content, and calculate myocardial oxygen uptake and myocardial oxygen consumption. Keep the arterial blood pH, CO2 and partial pressure of oxygen of dogs within normal range. The dose of MTP is 2.5 and 10 mg/kg, and the interval between two doses is 30 min. Continuously record various parameters after administration until they return to the control value. Take arterial blood and coronary sinus blood at 2, 5, 10 and 30 minutes after administration. Determine blood gas content, calculate myocardial oxygen uptake and myocardial oxygen consumption, and observe the effect of MTP on myocardial oxygen metabolism.

[6] = system: myocardial ischemia-reperfusion in rats; experiment: Cardiac muscle and plasma CPK, LDH, MDA of rats with ischemia-reperfusion, prophylactic administration; type: in vivo; settings: rat I-R
Protocol: (1) Refer to literature methods to make myocardial ischemia-reperfusion damage animal model. Ligate the left anterior descending branch of the coronary artery of rats for 10 minutes after MTP or verapamil (Ver) is sublingually administered through intravenous injection for 5 min, perfuse for 30 min. Continuously observe II-lead ECG through a polygraph. Take 2 ml left heart blood after the completion of reperfusion, and take the cardiac muscle at the cardiac apex of the left ventricle after the heart is perfused through the aorta. […] Grouping of the experiment: In the experiment, the rats are divided into seven groups: pseudo-operation control group (P); ischemia-reperfusion group (ischemia-reperfusion, I-R); ischemia-reperfusion+normal saline group (I-R+N.S); ischemia-reperfusion +0.5, 2.0 or 10.0 mg/Kg cardio myopeptidin groups (I-R+MTP) and ischemia-reperfusion +1.0 mg/Kg verapamil group (I-R+Ver), 8-10 animals in each group.

[7] = system: isolated rat heart with myocardial ischemia-reperfusion; experiment: Langendorff isolated rat heart, CPK and LDH of coronary effluent; settings: 1 μg/ml
Protocol: (2) Refer to literature methods to make Langendorff's cardiac hypoxia-reoxygenation damage animal model of isolated rat heart. Conduct Langendorff's perfusion with K—H liquid with high Ca2+ and low K+ and persistent filling of mixed gas. Hook two platinum filaments on the apex of heart and the root of the left cardiac atrium respectively, and record the electrocardiogram. Ligate LAD for 10 min and loosen for 15 min. Conduct perfusion with K—H liquid with corresponding concentrations of cardio myopeptidin from 5 min before ligation to 5 min after loosening for the cardio myopeptidin-treated group. Determine the related indexes of effluent before and after 8 min of ligation and 2 min after loosening respectively. […]

[8] = system: myocardial infarction in pigs; experiment: Myocardial infarction in miniature pigs (coronary ligation); type: in vivo; settings: pig, phleboclysis 0.25 mg/kg
Protocol: Anesthetize a healthy, grown male miniature pig with the body weight of 20.9±4.0 kg with 30 mg/kg of 3% sodium pentobarbital through auditory intravenous injection. Connect the tracheal cannula to a SC-3 electro-respirator to perform artificial positive pressure respiration. Open the thoracic cavity from the third rib at the left side to expose the heart. Separate the anterior descending branch of the coronary artery (about ⅓ distant from the apex of heart), and put a silk thread 0^□ beneath it for ligation. Place a multi-point fixed type epicardium electrode with 20 points on the myocardial surface under the ligature. Record the myocardial electrical signals on an RTA-1200 model hot-wave recorder of a RM-6300 model eight-lead polygraph through a ZYS1-I model numerical control epicardium scanner and AB-601G bioelectric amplifier, and 1 mV standard voltage is equal to 1 mm. Under the control of the automatic timer, measure the change in the electrocardiogram at those 20 points. Intubate a cannula from the femoral artery to the abdominal aorta, and connect it to a AP-641G blood pressure amplifier through a TP-400T model pressotransduer to measure the mean blood pressure (MBP). […]

COc1cccc2c1C(=O)c1c(O)c3c(c(O)c1C2=O)C[C@@](O)(C(=O)CO)C[C@@H]3O[C@H]1C[C@H](N)[C@H](O)[C@H](C)O1 [Adriamycin]
OD value (MTT method) (myocardial cells): 0.274 ± 0.011
OD value (MTT method) [1]: 0.272 ± 0.015

CC(C)NCC(O)COc1cccc2ccccc12 (stereo not drawn) [propranolol]
Value of pathological changes ± SD [2]: 0.71 ± 0.84
ΣNST ([3]; ischemia group 11.1): 6.17 ± 1.5 Num.
ΣΔST ([3]; ischemia group 40.5): 22.8 ± 6.4 mV
FFA (plasma) [4]: 77.1 ± 6.4 μmol/100 ml
myocardial oxygen consumption (MVO2), change value after administration ([5]; 2 min): −31.0 ± 13 %
myocardial oxygen uptake (O2 ext), change value after administration ([5]; 2 min): −3.00 ± 1.0%
myocardial oxygen consumption (MVO2), change value after administration ([5]; 5 min): −30.0 ± 13 %
myocardial oxygen uptake (O2 ext), change value after administration ([5]; 5 min): 3.00 ± 7.0%
myocardial oxygen consumption (MVO2), change value after administration ([5]; 10 min): −33.0 ± 10 %
myocardial oxygen uptake (O2 ext), change value after administration ([5]; 10 min): 3.00 ± 8.0%
myocardial oxygen consumption (MVO2), change value after administration ([5]; 30 min): −32.0 ± 14 %
myocardial oxygen uptake (O2 ext), change value after administration ([5]; 30 min): 3.00 ± 9.0%

COc1ccc(CCN(C)CCCC(C#N)(c2ccc(OC)c(OC)c2)C(C)C)cc1OC (stereo not drawn) [verapamil]
Cardiac muscle LDH ([6]; 1.0 mg/Kg): 75.1 ± 23 u/mg pro
Cardiac muscle MDA ([6]; 1.0 mg/Kg): 66.6 ± 19.8 nmol/100 mg pro
Plasma LDH ([6]; 1.0 mg/Kg): 46.7 ± 8.8 u/ml
Plasma MDA ([6]; 1.0 mg/Kg): 24.9 ± 6.6 nmol/mL
Cardiac muscle CPK ([6]; 1.0 mg/kg): 886 ± 115 u/100 mg pro
Plasma CPK ([6]; 1.0 mg/kg): 192 ± 60 u/100 ml
Coronary effluent CPK ([7]; during ischemia): 16.2 ± 2.8 U/L
Coronary effluent LDH ([7]; during ischemia): 13.0 ± 0.62 U/L
Coronary effluent CPK ([7]; perfusion): 16.0 ± 1.8 U/L
Coronary effluent LDH ([7]; perfusion): 14.3 ± 0.95 U/L
Coronary effluent CPK ([7]; prior ischemia): 16.3 ± 2.0 U/L
Coronary effluent LDH ([7]; prior ischemia): 11.4 ± 0.78 U/L
Infarction range [8]: 12.5 ± 3.4 %
